{
  "source": "patent US20110269802A1",
  "about": "“METHOD OF DELIVERY OF PERISHABLE LIQUID MIXTURES USING MIXING CAP AND CONTAINER SYSTEM” (priority 2010, published 2011)",
  "system": "diabetic, insulin dependent canine test subject",
  "assay": "GABA in drinking water given to diabetic, insulin dependent canine subjects; monitoring of fasting blood glucose and fructosamine",
  "type": "in vivo",
  "conditions": "for decline of fasting blood glucose: 30 mg/kg daily in 200 milliliters of water, oral, after two months of treatment, subject as its own control",
  "procedure": "METHODS: GABA (99% pure from Sigma-Aldrich) at a dose of 30 mg/kg was brought into solution in 200 milliliters of water daily so that the diabetic, insulin dependent canine test subject consumed the dose within approximately four hours, based on average consumption of water observed by owners. Fasting blood glucose and fructosamine were monitored once a month. Each canine subject served as its own control, with monitoring of blood glucose and fructosamine off treatment recorded the first two months followed by monitoring while on GABA therapy.",
  "data": [
    {"smiles": "NCCCC(=O)O", "note": "[GABA, gamma-aminobutyric acid]", "values": [
      {"measurement": "concentrations of blood fructosamine", "setting": "both subjects, 30 mg/kg daily in water, on treatment versus off treatment", "value": "significantly lower"},
      {"measurement": "decline of fasting blood glucose", "setting": "first test subject", "value": 49.6, "unit": "%"},
      {"measurement": "glycemic control", "setting": "insulin dependent test subjects, 30 mg/kg daily in water, within two weeks, continued improvement over four months", "value": "improved glycemic control within two weeks"},
      {"measurement": "decline of fasting blood glucose", "setting": "second test subject", "value": 50, "unit": "%"}
    ]}
  ]
}
